Test systems include COLO 205 colon; HOP-62 NSCLC; HS 578T breast; HT29 colon; K-562 leukemia; KM12 colon; MDA-MB-231 breast; MDA-MB-435; MOLT-4 leukemia; NCI-H226 lung; NCI-H522 lung; NCI/ADR-RES ovarian; OVCAR-4 ovarian; OVCAR-5 ovarian; PC-3 prostate; RPMI-8226 leukemia; RXF 393 renal; SF-268 CNS; SR leukemia; U251 CNS.
Holding throughout (test): DTP human tumour cell line panel, 48 h

SMILES strings stand for the structures.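 Values below derive from 48-hour exposures of cells grown in 96-well plates, with endpoints linearly interpolated between the two concentrations bracketing the appropriate inhibition level. The concentration for full growth arrest is given as TGI.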 Where only a bound is given, the exact number is not on record here.

The source of these data is PubChem BioAssay (NCI).

With `COC1CC(NC(=O)C(F)(F)F)C(OC(C)=O)C(C)O1` (stereo not given), the total growth inhibition concentration (TGI) in the assay on COLO 205 colon, in the assay on HOP-62 NSCLC, in the assay with HS 578T breast, with HT29 colon, in the assay on K-562 leukemia and in the assay with KM12 colon was over 100 µM in each case. Besides, the concentration for total growth inhibition (TGI) with MDA-MB-231 breast, with MDA-MB-435, with MOLT-4 leukemia, in the assay on NCI-H226 lung, with NCI-H522 lung and with NCI/ADR-RES ovarian was over 100 µM in each case. Besides, the total growth inhibition concentration (TGI) in the assay on OVCAR-4 ovarian, in the assay on OVCAR-5 ovarian, with PC-3 prostate, with RPMI-8226 leukemia, in the assay on RXF 393 renal and with SF-268 CNS was over 100 µM in each case. Further, the TGI with SR leukemia and in the assay on U251 CNS was over 100 µM in each case.
As for `CN(C)CCCCN1c2ccccc2Sc2ccc(C(=O)c3ccccc3)cc21`, the TGI (in general, the concentration at which net growth stops) in the assay on COLO 205 colon was found to be 3.13 µM; in the assay on HOP-62 NSCLC it was 6.99 µM; in the assay on HS 578T breast, 9.69 µM; with HT29 colon it was 3.88 µM; in the assay on K-562 leukemia it was 3.36 µM; with KM12 colon, 4.99 µM. In addition, the TGI in the assay with MDA-MB-231 breast turned out to be 5.2 µM; with MDA-MB-435 it was 3.51 µM; with MOLT-4 leukemia, 6.31 µM; with NCI-H226 lung, 22.8 µM; in the assay with NCI-H522 lung, 6.84 µM; in the assay on NCI/ADR-RES ovarian it was 11.1 µM. Further, the TGI is 10.8 µM with OVCAR-4 ovarian; 13.8 µM with OVCAR-5 ovarian; 6.4 µM with PC-3 prostate; over 100 µM in the assay with RPMI-8226 leukemia; 4.17 µM in the assay on RXF 393 renal; 17.7 µM in the assay on SF-268 CNS. For the same molecule, the concentration for total growth inhibition (TGI) was over 100 µM in the assay with SR leukemia and 7.52 µM in the assay with U251 CNS.
Regarding `CC(=O)O[C@H]1C(=O)[C@@]2(C)[C@H]([C@H](OC(=O)c3ccccc3)[C@]3(O)C[C@H](OC(=O)[C@H](O)[C@@H](NC(=O)C(C)(C)C)c4ccccc4)C(C)=C1C3(C)C)[C@]1(OC(C)=O)CO[C@@H]1C[C@@H]2O`, the concentration for total growth inhibition (TGI) in the assay on COLO 205 colon was 0.251 µM; in the assay with HOP-62 NSCLC it was over 10 µM; in the assay on HS 578T breast, 0.389 µM; in the assay on HT29 colon, over 10 µM; in the assay with K-562 leukemia it was over 10 µM; in the assay on KM12 colon, over 10 µM. Further, the total growth inhibition concentration (TGI) in the assay with MDA-MB-231 breast is over 10 µM; in the assay on MDA-MB-435 it was 0.034 µM; in the assay with MOLT-4 leukemia, over 8.96 µM; with NCI-H226 lung it was over 10 µM; in the assay with NCI-H522 lung it was 0.105 µM; in the assay with NCI/ADR-RES ovarian, over 10 µM. In addition, the TGI is over 10 µM with OVCAR-4 ovarian; over 8.6 µM with OVCAR-5 ovarian; 1.31 µM in the assay on PC-3 prostate; over 10 µM with RPMI-8226 leukemia; 2.64 µM in the assay on RXF 393 renal; over 10 µM in the assay with SF-268 CNS. Besides, the total growth inhibition concentration (TGI) in the assay with SR leukemia was over 2.58 µM; in the assay on U251 CNS, over 3.9 µM.
For the molecule `Cc1ccc2[nH]c3c(c2c1)C1CCC(C(C)(C)C)CC1C1C(=O)N(c2ccc4c(c2)OCO4)C(=O)C31` (stereo not given), the TGI was 12.5 µM in the assay on COLO 205 colon; 4.24 µM in the assay with HOP-62 NSCLC; 3.53 µM in the assay with HS 578T breast; 16.2 µM with HT29 colon; 9.62 µM with K-562 leukemia; 19 µM in the assay on KM12 colon. Also, the TGI was found to be 5.11 µM with MDA-MB-231 breast; 20.5 µM in the assay on MDA-MB-435; 4.25 µM in the assay on MOLT-4 leukemia; 8.58 µM with NCI-H226 lung; 7.18 µM in the assay on NCI-H522 lung; 10.2 µM in the assay with NCI/ADR-RES ovarian. Besides, the TGI in the assay with OVCAR-4 ovarian is 3.62 µM; in the assay with OVCAR-5 ovarian, 13.6 µM; in the assay on PC-3 prostate it was 9.17 µM; in the assay with RPMI-8226 leukemia it was 14.7 µM; with RXF 393 renal, 4.11 µM; in the assay on SF-268 CNS it was 5.04 µM. The total growth inhibition concentration (TGI) stood at 3.73 µM in the assay on SR leukemia and 4.77 µM in the assay on U251 CNS.
On to `O=c1c2cc([N+](=O)[O-])ccc2n2n1CCCC2`, for which the TGI in the assay on COLO 205 colon, with HOP-62 NSCLC, in the assay with HS 578T breast, with HT29 colon, in the assay with K-562 leukemia and in the assay with KM12 colon was over 100 µM each time. For the same molecule, the total growth inhibition concentration (TGI) in the assay on MDA-MB-231 breast, with MDA-MB-435, in the assay on MOLT-4 leukemia, in the assay with NCI-H226 lung, with NCI-H522 lung and in the assay with NCI/ADR-RES ovarian was over 100 µM each time. Also, the TGI in the assay on OVCAR-4 ovarian, in the assay with OVCAR-5 ovarian, with PC-3 prostate, with RPMI-8226 leukemia, in the assay on RXF 393 renal and in the assay on SF-268 CNS was over 100 µM in each case. The TGI in the assay with SR leukemia and in the assay on U251 CNS was over 100 µM in each case.
With `COc1cc(Nc2nc3ccc(C(F)(F)F)cc3nc2C(=O)O)cc(OC)c1OC`, the TGI is 34.6 µM in the assay with COLO 205 colon; 48.2 µM with HOP-62 NSCLC; 54.8 µM with HS 578T breast; 63.3 µM in the assay on HT29 colon; over 100 µM in the assay on K-562 leukemia; 59.4 µM with KM12 colon. The TGI in the assay on MDA-MB-231 breast is 53.9 µM; in the assay on MDA-MB-435, 71.1 µM; in the assay with MOLT-4 leukemia it was over 100 µM; with NCI-H226 lung it was 40.6 µM; in the assay on NCI-H522 lung it was 51.8 µM; with NCI/ADR-RES ovarian it was 45.5 µM. Moreover, the TGI was 52.6 µM in the assay on OVCAR-4 ovarian; over 100 µM with OVCAR-5 ovarian; 56.1 µM in the assay on PC-3 prostate; 91.3 µM in the assay on RPMI-8226 leukemia; 54 µM in the assay on RXF 393 renal; 46.8 µM with SF-268 CNS. Besides, the TGI with SR leukemia is over 100 µM; with U251 CNS, 36.7 µM.
